Results taken from patent US12630512B2, “Agents for differentiating stem cells and treating cancer” (Minerva Biotechnologies Corporation, priority 2017, dated 2026).

How the values were obtained:
[1] = test system: T47D breast cancer cells; test: Cancer cell migration assay (wound healing / Platypus); type: cell-based, human; conditions: cell line not given, FIGS. 65-80 use T47D, 120 hours; for IC50: Homo sapiens, read-out: IC50 of inhibition of cancer cell migration
Excerpt: Potent cancer cell migration is characteristic of cancer cell invasion of other tissues and of metastasis. Typical migration assays involve coating a cell culture plate with fibronectin, collagen or the like, plating cancer cells and making a scar across through the cells and measuring the time it takes for the cancer cells to invade the void space. An alternative approach that gives more reliable data is the Platypus System which is a special multi-well cell culture plate with a juxtaposed set of plugs that block off a circle in the center of each well. Cancer cells are plated while the plugs are in place, then they are removed after the cells attach to the plate surface. […] In our cancer cell migration assays, the number of cells that have migrated into the empty space is quantified using Image J software. The effects of known anti-migration compounds are compared to the anti-MUC1* Fab E6 and the first few small molecule leads. The effect of two novel small molecules MN1186 and MN1194, compared to the known anti-migration molecule SU11274, is shown in FIG. 22A-22U. FIG. 22V is a graph showing the measured inhibition of cancer cell migration at time 0, 24 hours or 48 hours for a number of compounds. […] FIG. 22X is a graph showing how IC50's of the small molecules of the invention were measured and calculated.
Percent inhibition of cancer cell migration was performed in a wound healing assay. The percent area that the invading cancer cells occupied, in the presence of a drug candidate compared to the controls, was quantified by Image J cell software which enables cell counting from photographs. IC50's were calculated by performing migration experiments at several compound concentrations and then applying Hill's equation. Inhibition of cancer cell proliferation was quantified by automated cell counting in the presence or absence of a drug candidate. Here, the inhibition of cancer cell proliferation was scored 1 if proliferation was inhibited by 25%, 2 if inhibited by […] and 4 for the highest degree of inhibition of proliferation, and 0 for the lowest. The effect of the drug candidates on stem cell pluripotency or proliferation was scored by eye, based on cell morphology and cell density, with 0 being no change in morphology or cell number and 4 being the most profound effect, with the stem cells taking on the morphology of a differentiating cell, along with much fewer cells indicative of inhibition of proliferation. As an example, FIGS. 30A-30F show photographs of naïve stem cell, primed stem cell and fibroblast controls. FIGS. 31A-31F show the effect of compounds of the invention on naïve state stem cells, where the number of ‘+’ signs indicates the score from 0-4 of ability of compound to inhibit pluripotency, proliferation of naïve stem cells or ability to induce their differentiation. […] FIGS. 36-44 and 65-87 show photographs and IC50 graphs of the compounds of the invention, inhibiting cancer cell migration and invasion. Cancer cell migration is a hallmark of metastatic cancer.
For the cancer cell migration experiment cancer cells were plated at varying densities into an Oris Cell Migration Assay Collagen-1 coated 96-well plate (Platypus Technologies LLC, Madison, WI). The Collagen-1 coated 96-well plate incorporates a specific vacuum plug which attaches to the bottom of each well, creating an area in which the cells cannot grow into. Once the cells have been plated at high densities into each well, they are allotted an 18-24 hour time period to attach to the bottom of the wells. Post-24 hour plugs are removed from the plate and then small molecule analogs are added to the wells. Images are taken of each well and represent time 0 (T=0) for each well. Images are taken of the wells at the 24, 48, 72, 96 and 120 hour time points. Data analysis is conducted using the images taken at these specific time point. […]

[2] = test system: human fibroblasts; test: Effect on fibroblasts as surrogate for normal cells; type: cell-based; conditions: fibroblasts as surrogate for normal cells; 6 uM
Excerpt: However, fibroblasts are more differentiated than stem cells but are able to self-replicate for defined periods of time. We tested selected compounds of the invention to determine if these compounds were just cytotoxic or if they selectively affected stem cells and, importantly, cancer cells, but not normal, healthy cells. Here, we used fibroblasts as a surrogate for normal cells. […] […] Each compound was scored for its effect on fibroblast proliferation where “+” indicates 25% inhibition of fibroblast growth, “++” 50% inhibition and “+++” 75% inhibition of growth.

[3] = test system: micro-RNA-145; test: RT-PCR measurement of miR-145 in naïve state stem cells; type: cell-based, human; conditions: treated for 72 hours (FIG. 91A-91C)
Experimental: FIGS. 91A-91C show graphs of RT-PCR measurement of naïve state stem cells treated for 72 hours with compounds of the invention at the indicated concentrations, wherein the gene that is measured is micro-RNA-145, which is a harbinger of stem cell differentiation.
We used RT-PCR to measure changes in the expression of some of these super-enhancer genes, AXIN2, which is a surrogate for activated β-catenin, miR-145, MUC1 and MUC1* ligands NME7AB and NME7-X1. […] Thus, compounds of the invention, at least in part, inhibit tumor cell migration and invasiveness by inducing expression of genes that are critical for differentiation, some of which are super-enhancer target genes, and miR-145, while decreasing expression of β-catenin, MUC1 and its growth factor NME7AB. Novel compounds of the invention are powerful agents for the treatment or prevention of cancers and metastatic cancers. […] In one aspect of the invention, a biological sample from a patient is tested for the presence of MUC1*, NME7AB or NME7-X1, and upon finding that the patient's cancer is positive for MUC1*, NME7AB or NME7-X1, a compound of the invention is administered to the patient in an amount suitable to prevent or treat the cancer. In one instance, the patient sample is subjected to a test, such as PCR, to determine the amount of nucleic acid that encodes MUC1, NME7 or NME7-X1. […] In another aspect of the invention, the patient's cancer is considered to be MUC1* positive, NME7AB positive or NME7-X1 positive if expression of those genes is equal to or greater than 0.5% of EEF1A1 expression in those cells. In yet another aspect of the invention, the patient's cancer is considered to be MUC1* positive if the patient's tissue specimen is contacted with an antibody that binds to the PSMGFR peptide or the N-10 peptide and stains the tissue with a pathologist's standard score 1-4 (“+−++++”). […]

Row | SMILES | IC50 [1] [nM] | inhibited cancer cell migration [1] [%] | effect on fibroblast cells [2] | expression of miR-145 in naïve state stem cells [3]
1 | CN(CC1CCC(C(=O)N2CCC(c3ccncc3)CC2)CC1)C(=O)OC(C)(C)C (stereo not drawn) [MN1428, Tert-butyl methyl((4-(4-(pyridin-4-yl)piperidine-1-carbonyl)cyclohexyl)methyl)carbamate] | 7 | 79 | no effect | increased expression of miR-145
2 | CN(C[C@H]1CC[C@H](C(=O)N2CCc3c([nH]c4ccccc34)C2C2CC2)CC1)C(=O)NC(C)(C)C (stereo partly drawn) [MN1413] | 10 | 83 | no effect | increased expression of miR-145
3 | C[C@@H]1Cc2c([nH]c3ccccc23)CN1C(=O)C1CCC(CN(C)C(=O)NC(C)(C)C)CC1 (stereo partly drawn) [MN1423] | 12 | 84 | no effect | increased expression of miR-145
